Starred links: 1 amine or outer side, 2 acyl side, 3 side chain; linkers in the order of their positions; H or OH if unused. Non-standard residues stand in square brackets, D forms with d. No end group written: not given here. mesoDAP = meso-diaminopimelic acid, O=C(O)[C@@H](CCC[C@H](N[*:1])C(=O)[*:2])N[*:3]

This is an account of results in patent US20090028795A1, “NOD1 as an Anti-Tumor Agent” (priority 2005, published 2009).

Common to all, as to type: cell-based, human
Experiment [1] concerns MCF-7 Nod2 cells. Put plainly: IL-8 secretion (ELISA) in MCF-7 Nod2 cells. To be noted: 24 h. The protocol: (§1) In FIG. 5A, MCF-7 Blasto, MCF-7 Nod1 and MCF-7 Nod2 were treated with the NOD1 ligand γTriDAP or the Nod2 ligand muramyl dipeptide (MDP)(20 ug/ml each) in the presence or absence of CHX for 48 h. Cells were then incubated with PI and apoptotic cell death was measured by flow cytometry. […] In FIG. 5B, expression of NOD1 and NOD2 was confirmed by Western blot analysis using anti-Myc antibodies for detection of the recombinant proteins. […] MCF-7 Blasto, MCF-7 Nod1 and MCF-7 Nod2 cells were stimulated with γTriDAP or MDP in the presence or absence of CHX (0.5 ug/ml) for 24 h. Cell supernatants were then harvested and assayed for IL-8 secretion.
IL-8 ELISA. Concentrations of IL-8 in the culture supernatants of transfected HeLa cells were measured by ELISA using 96-well Immunlon plates (Dynatech Laboratories, Chantilly, Va.). ELISA was performed using the mAb MAB208 for capture and a biotinylated polyclonal rabbit anti-human IL-8 Ab (R&D Systems, Minneapolis, Minn.) followed by streptavidin HRP for detection.
(§2) Experiments were also performed to ascertain whether activation of Nod2 by its specific activator, muramyl dipeptide (MDP), would initiate apoptosis in parental MCF-7 cells or in MCF-7 cells over-expressing Nod2 (MCF-7 Nod2). Thus, γTriDAP or MDP were added to each of these lines and apoptosis (FIG. 5A) and IL-8 production (FIG. 5C) were measured. […]
A general note: In an ELISA, binding on a coated surface is turned into a signal by an enzyme label.

Experiment [2] concerns MCF-7 Nod2 cells. In words: Apoptosis (PI, flow cytometry) in MCF-7 cells over-expressing Nod2. Particulars: 20 ug/ml plus CHX, 48 h. The protocol:
as §1
Cell viability assays. Propidium iodide exclusion assay: Cells were stimulated as indicated for 2 days. […] The extent of cell death was analyzed with a FACSCalibur flow cytometer (Becton Dickinson, Mountain View, Calif.). […] Cells were fixed in 4% paraformaldehyde and examined by fluorescence microscopy.
as §2
(In flow cytometry, cells or beads pass a laser one at a time.)

For experiment [3], the system named is MCF-7 cells expressing wild type RIP2, RIP2 KD or RIP2ΔCARD. In words: Apoptosis (PI, flow cytometry) in MCF-7 cells stably expressing RIP2 constructs. To be noted: 20 μg/ml, CHX 3 μg/ml, 48 hr. The procedure: FIG. 13A-D illustrate that RIP2 is an important component of the Nod1 apoptotic pathway. […] MCF-7 cells were stably transfected with Myc-Nod1, Myc-RIP2 (wild type), Myc-RIP2 KD, and Myc-RIP2 ΔCARD. Test cells were then treated with γTriDAP, αTriDAP and MDP (20 μg/ml each) in the presence or absence of CHX (3 μg/ml) for 48 hr, while control cells were not treated with these agents. Cells were then incubated with propidium iodide (PI) and apoptotic cell death was measured by flow cytometry. FIG. 13B illustrates the effect of TNF upon apoptosis in the same MCF-7 cell lines described in FIG. 13A. These cells lines were treated with TNF (10 ng/ml) for 18 hr and apoptotic cell death was assessed as described for FIG. 13A. TNF increased apoptosis in all the cell lines tested. […] Cells were incubated in the presence of increasing concentrations of γTriDAP or MDP in the presence of CHX for 48 hr and apoptotic cell death was assessed as described for FIG. 13A. FIG. 13D illustrates IL-8 secretion by MCF-7 Blasto, MCF-7 Nod1 and MCF-7 RIP2 wild type cells after stimulation with γTriDAP in the presence of CHX ([…]) or TNF. […]
Cell viability assays. […] The extent of cell death was analyzed with a FACSCalibur flow cytometer (Becton Dickinson, Mountain View, Calif.). […] Cells were fixed in 4% paraformaldehyde and examined by fluorescence microscopy. […]

For experiment [4], the system named is MCF-7 C20 cells with Nod2. Put plainly: Apoptosis in MCF-7 C20 cells complemented with Nod2. Particulars: MCF-7 C20 complemented with Nod2 (data not shown).
For experiment [5], the system named is MCF-7 cells. In words: Apoptosis in the presence of TNFα (FIG. 8C). Particulars: with TNFα. The protocol:
FIG. 8A-D illustrate that a synergistic relationship exists between NOD1 and TNFα. FIG. 8A graphically illustrates that the percentage of apoptotic cells increases in dose-specific manner as the concentration of NOD1 increases from 0.0 to 100 μg/ml and the concentration of TNFα increases from 0.5 ng/ml to 1 ng/ml. FIG. 8B graphically illustrates that the percentage of apoptotic cells increases in dose-specific manner as the concentration of cycloheximide increases from 0.0 to 3 μg/ml and the concentration of TNFα increases from 0.5 ng/ml to 1 ng/ml. […] FIG. 8D illustrates NOD1 expression at various time points after exposure of MCF-7 cells to TNFα.

Experiment [6] has as its system poly(ADP-ribose)polymerase (PARP) and capases 6, 7, 8 and 9. Put plainly: Western blot of PARP and caspase cleavage in MCF-7 cells. To be noted: CHX 0.5 ug/ml, 24 h. The protocol:
Cleavage of PARP and various caspases was detected by Western blot analysis of cell MCF-7 Blasto, MCF-7 C20 and MCF-7 Nod1 after stimulation with γTriDAP, αTriDAP or medium (control) in the presence or absence of CHX (0.5 ug/ml) for 24 h. Cells were harvested, subjected to western blotting and PARP, caspases, p20, p41/43 and p35 were detected with antibodies reactive thereof.
Western blot analysis and immunoprecipitation. Cells were washed extensively and lysed using lysis buffer containing 50 mM Hepes, 100 mM NaCl, 2 mM EDTA, 10% glycerol, 1% Nonidet P-40, 14 μM pepstatin A, 100 uM leupeptin, 3 mM benzamidine, 1 mM PMSF, 1 mM sodium pyrophosphate, 10 mM sodium orthovanadate, 100 U/ml aprotinin, and 100 mM sodium fluoride. After incubation for 30 min on ice, cell lysates were centrifuged (14000 rpm, 10 min, 4° C.) and the supernatants were recovered. For immunoprecipitation, cell lysates were mixed with 5 μg of antibody for 3 hour at 4° C. under constant agitation. Immune complexes were allowed to bind to 20 μl protein A-Sepharose beads overnight, beads were washed three times with lysis buffer. Immunoprecipitates were separated on SDS-PAGE and transferred to PVDF membranes.
A general note: A western blot detects proteins with antibodies after separation by electrophoresis.

The subject of experiment [7] is MCF-7 cells. In words: Propidium iodide exclusion cell death assay, wild-type (parental/Blasto) MCF-7 cells. To be noted: MCF-7 cells, in the presence of cycloheximide. The procedure:
(§3) Cell viability assays. Propidium iodide exclusion assay: Cells were stimulated as indicated for 2 days. Subsequently, cells were harvested, washed twice in FACS buffer (PBS containing 1% FCS and 0.1% NaN3) and resuspended in propidium iodide (PI)-containing FACS buffer (4 ug/ml). The extent of cell death was analyzed with a FACSCalibur flow cytometer (Becton Dickinson, Mountain View, Calif.). DAPI staining: MCF-7 cells were plated in chamber slides, and stimulated for 2 days. Cells were washed with PBS and apoptotic nuclei were stained with 1 μg/ml DAPI (Sigma Chemical Co., St. Louis, Mo.). Cells were fixed in 4% paraformaldehyde and examined by fluorescence microscopy.
To further investigate the role of Nod1 in apoptosis, a variety of cell types were incubated with the Nod1 ligand, […] (γTriDAP), which specifically activates Nod1. The cell types tested included the parental MCF-7 cell line, the Nod1-deficient MCF-7C20 clone, and a cell line engineered to contain an additional human Nod1 allele (MCF-7Nod1) so that Nod1 was over-expressed. To determine whether the resistance of C20 cells to γTriDAP-induced apoptosis resulted from the absence of Nod1, human Nod1 was stably expressed in MCF-7 C20 cells to produce Nod1-sufficient C20 cells (C20/Nod1). As another control, the parental MCF-7 cell line was transfected with an empty retroviral vector to generate MCF-7 Blasto cells. Cells were treated with γTriDAP in the presence or absence of cycloheximide (CHX) and cell death was then determined by propidium iodide staining and flow cytometry.

In experiment [8] the test system is SK-BR3. Put plainly: Apoptosis (PI staining), SK-BR3 cells. Particulars: plus TNFα and cycloheximide (FIG. 9B). The protocol:
as §3
To determine if Nod1-dependent apoptosis occurs in other human cell lines, a series of epithelial cell lines were examined where Nod1 was stably expressed to enhance sensitivity to activation of the Nod1 pathway. Cells were treated with TNFα (T) and γTriDAP (γ) in the presence or absence of CHX (C) and monitored for viability by PI staining as a measure of apoptosis (Table 1).

Take muramyl dipeptide [MDP]: the IL-8 secretion result in experiment [1] is “did result in IL-8 secretion”. Besides, the apoptosis result is “did not undergo increased apoptosis” in experiment [2], “effective at inducing high levels of apoptosis” in experiment [3] (cells expressing RIP2 KD), “not” in experiment [3] (cells expressing either wild type RIP2 or RIP2ΔCARD) and “did not result in apoptosis” in experiment [4].

Consider “αTriDAP: inactive control tri-peptide where mesoDAP was bound to Glu in the α position rather than in the γ position (Ala-Glu-[mesoDAP]; not fully specified)”, for which the “apoptosis in the presence of TNFα” value in experiment [5] is listed as “may actually inhibit apoptosis”. Moreover, the “proteolytic cleavage of PARP and capases 6, 7, 8 and 9” value in experiment [6] is listed as “not”. The cell death result in experiment [7] is given as “did not induce cell death”. Further, the “apoptosis of SKBR3 cells” value in experiment [8] is recorded as “reduced apoptosis”.
